Laboratory results reported in ChEMBL document CHEMBL3044541, “Control of crown rot-causing fungal pathogens of banana by inorganic salts and a surfactant” (Crop Prot, 2007).
Activity calls are given as the source filed them. No cut-off for these calls is given here.

How the values were obtained:
Lasiodiplodia theobromae [1] = experiment: Antifungal activity against Lasiodiplodia theobromae infected Cavendish banana fruit assessed as reduction in crown rot incubated for 15 min followed by compound washout measured after 2 weeks in absence of surfactant APSA 80 relative to control; format: functional; set-up: concentration or dose not given beside the values
Colletotrichum musae [2] = experiment: Antifungal activity against Colletotrichum musae infected Cavendish banana fruit assessed as reduction in crown rot incubated for 15 min followed by compound washout measured after 1 week in presence of surfactant APSA 80 relative to control; format: functional; set-up: concentration or dose not given beside the values
Thielaviopsis paradoxa [3] = experiment: Antifungal activity against Ceratocystis paradoxa assessed as inhibition of conidium germination at 5 g/l incubated for 15 min followed by compound washout measured after 7 days by microscopic analysis in presence of surfactant APSA 80; format: functional, organism-based
Lasiodiplodia theobromae [4] = experiment: Antifungal activity against Lasiodiplodia theobromae assessed as reduction in colony diameter at 10 to 160 g/l incubated for 15 min followed by compound washout measured after 7 days in absence of surfactant APSA 80 relative to control; format: functional; set-up: scale not given: the % may be the effect or the level left
Colletotrichum musae [5] = experiment: Antifungal activity against Colletotrichum musae infected Cavendish banana fruit assessed as reduction in crown rot incubated for 15 min followed by compound washout measured after 2 weeks in absence of surfactant APSA 80 relative to control; format: functional; set-up: concentration or dose not given beside the values
Fusarium verticillioides [6] = experiment: Antifungal activity against Fusarium verticillioides assessed as reduction in colony diameter at 10 to 160 g/l incubated for 15 min followed by compound washout measured after 7 days in presence of surfactant APSA 80 relative to control; format: functional; set-up: scale not given: the % may be the effect or the level left
Thielaviopsis paradoxa [7] = experiment: Antifungal activity against Ceratocystis paradoxa assessed as reduction in colony diameter at 10 to 160 g/l incubated for 15 min followed by compound washout measured after 7 days in absence of surfactant APSA 80 relative to control; format: functional; set-up: scale not given: the % may be the effect or the level left
Thielaviopsis paradoxa [8] = experiment: Antifungal activity against Ceratocystis paradoxa infected Cavendish banana fruit assessed as reduction in crown rot incubated for 15 min followed by compound washout measured after 2 weeks in presence of surfactant APSA 80 relative to control; format: functional; set-up: concentration or dose not given beside the values
Thielaviopsis paradoxa [9] = experiment: Growth inhibition of Ceratocystis paradoxa assessed as inhibition of mycelial growth up to 160 g/l incubated for 15 min followed by compound washout measured after 7 days in presence of surfactant APSA 80; format: functional
Lasiodiplodia theobromae [10] = experiment: Antifungal activity against Lasiodiplodia theobromae infected Cavendish banana fruit assessed as reduction in crown rot incubated for 15 min followed by compound washout measured after 2 weeks in presence of surfactant APSA 80 relative to control; format: functional; set-up: concentration or dose not given beside the values
Fusarium verticillioides [11] = experiment: Antifungal activity against Fusarium verticillioides infected Cavendish banana fruit assessed as reduction in crown rot incubated for 15 min followed by compound washout measured after 3 weeks in presence of surfactant APSA 80 relative to control; format: functional; set-up: concentration or dose not given beside the values; conditions: pooled result: one value given for 4 cell lines, strains, targets or settings
Fusarium verticillioides [12] = experiment: Antifungal activity against Fusarium verticillioides infected Cavendish banana fruit assessed as reduction in crown rot incubated for 15 min followed by compound washout measured after 1 week in presence of surfactant APSA 80 relative to control; format: functional; set-up: concentration or dose not given beside the values
Colletotrichum musae [13] = experiment: Growth inhibition of Colletotrichum musae assessed as inhibition of mycelial growth up to 160 g/l incubated for 15 min followed by compound washout measured after 7 days in absence of surfactant APSA 80; format: functional
Fusarium verticillioides [14] = experiment: Antifungal activity against Fusarium verticillioides infected Cavendish banana fruit assessed as reduction in crown rot incubated for 15 min followed by compound washout measured after 2 weeks in presence of surfactant APSA 80 relative to control; format: functional; set-up: concentration or dose not given beside the values
Fusarium verticillioides [15] = experiment: Antifungal activity against Fusarium verticillioides assessed as reduction in colony diameter at 10 to 160 g/l incubated for 15 min followed by compound washout measured after 7 days in absence of surfactant APSA 80 relative to control; format: functional; set-up: scale not given: the % may be the effect or the level left
Colletotrichum musae [16] = experiment: Antifungal activity against Colletotrichum musae infected Cavendish banana fruit assessed as reduction in crown rot incubated for 15 min followed by compound washout measured after 1 week in absence of surfactant APSA 80 relative to control; format: functional; set-up: concentration or dose not given beside the values
Colletotrichum musae [17] = experiment: Antifungal activity against Colletotrichum musae assessed as reduction in colony diameter at 10 to 160 g/l incubated for 15 min followed by compound washout measured after 7 days in absence of surfactant APSA 80 relative to control; format: functional; set-up: scale not given: the % may be the effect or the level left
Fusarium verticillioides [18] = experiment: Antifungal activity against Fusarium verticillioides infected Cavendish banana fruit assessed as reduction in crown rot incubated for 15 min followed by compound washout measured after 3 weeks in absence of surfactant APSA 80 relative to control; format: functional; set-up: concentration or dose not given beside the values; conditions: pooled result: one value given for 4 cell lines, strains, targets or settings
Lasiodiplodia theobromae [19] = experiment: Antifungal activity against Lasiodiplodia theobromae assessed as reduction in colony diameter at 10 to 160 g/l incubated for 15 min followed by compound washout measured after 7 days in presence of surfactant APSA 80 relative to control; format: functional; set-up: scale not given: the % may be the effect or the level left
Colletotrichum musae [20] = experiment: Antifungal activity against Colletotrichum musae infected Cavendish banana fruit assessed as reduction in crown rot incubated for 15 min followed by compound washout measured after 2 weeks in presence of surfactant APSA 80 relative to control; format: functional; set-up: concentration or dose not given beside the values
Thielaviopsis paradoxa [21] = experiment: Antifungal activity against Ceratocystis paradoxa infected Cavendish banana fruit assessed as reduction in crown rot incubated for 15 min followed by compound washout measured after 1 week in presence of surfactant APSA 80 relative to control; format: functional; set-up: concentration or dose not given beside the values
Colletotrichum musae [22] = experiment: Antifungal activity against Colletotrichum musae assessed as reduction in colony diameter at 10 to 160 g/l incubated for 15 min followed by compound washout measured after 7 days in presence of surfactant APSA 80 relative to control; format: functional; set-up: scale not given: the % may be the effect or the level left
Fusarium verticillioides [23] = experiment: Growth inhibition of Fusarium verticillioides assessed as inhibition of mycelial growth up to 160 g/l incubated for 15 min followed by compound washout measured after 7 days in absence of surfactant APSA 80; format: functional
Lasiodiplodia theobromae [24] = experiment: Antifungal activity against Lasiodiplodia theobromae infected Cavendish banana fruit assessed as reduction in crown rot incubated for 15 min followed by compound washout measured after 1 week in absence of surfactant APSA 80 relative to control; format: functional; set-up: concentration or dose not given beside the values
Lasiodiplodia theobromae [25] = experiment: Antifungal activity against Lasiodiplodia theobromae infected Cavendish banana fruit assessed as reduction in crown rot incubated for 15 min followed by compound washout measured after 1 week in presence of surfactant APSA 80 relative to control; format: functional; set-up: concentration or dose not given beside the values
Fusarium verticillioides [26] = experiment: Antifungal activity against Fusarium verticillioides assessed as inhibition of conidium germination at 5 g/l incubated for 15 min followed by compound washout measured after 7 days by microscopic analysis in presence of surfactant APSA 80; format: functional, organism-based
Fusarium verticillioides [27] = experiment: Antifungal activity against Fusarium verticillioides infected Cavendish banana fruit assessed as reduction in crown rot incubated for 15 min followed by compound washout measured after 2 weeks in absence of surfactant APSA 80 relative to control; format: functional; set-up: concentration or dose not given beside the values
Thielaviopsis paradoxa [28] = experiment: Antifungal activity against Ceratocystis paradoxa infected Cavendish banana fruit assessed as reduction in crown rot incubated for 15 min followed by compound washout measured after 1 week in absence of surfactant APSA 80 relative to control; format: functional; set-up: concentration or dose not given beside the values
Thielaviopsis paradoxa [29] = experiment: Antifungal activity against Ceratocystis paradoxa assessed as reduction in colony diameter at 10 to 160 g/l incubated for 15 min followed by compound washout measured after 7 days in presence of surfactant APSA 80 relative to control; format: functional; set-up: scale not given: the % may be the effect or the level left
Fusarium verticillioides [30] = experiment: Antifungal activity against Fusarium verticillioides infected Cavendish banana fruit assessed as reduction in crown rot incubated for 15 min followed by compound washout measured after 1 week in absence of surfactant APSA 80 relative to control; format: functional; set-up: concentration or dose not given beside the values
Thielaviopsis paradoxa [31] = experiment: Antifungal activity against Ceratocystis paradoxa infected Cavendish banana fruit assessed as reduction in crown rot incubated for 15 min followed by compound washout measured after 2 weeks in absence of surfactant APSA 80 relative to control; format: functional; set-up: concentration or dose not given beside the values

## [Ca+2].[Cl-].[Cl-] [CALCIUM CHLORIDE]
Lasiodiplodia theobromae [1]
  Activity: 0%
Colletotrichum musae [2]
  Activity: 0%
Thielaviopsis paradoxa [3]
  inhibition: Active
Lasiodiplodia theobromae [4]
  Activity: 35%
Colletotrichum musae [5]
  Activity: 0%
Fusarium verticillioides [6]
  Activity: 53%
Thielaviopsis paradoxa [7]
  Activity: 28%
Thielaviopsis paradoxa [8]
  Activity: 50%
Thielaviopsis paradoxa [9]
  Activity: inactive
Lasiodiplodia theobromae [10]
  Activity: 50%
Fusarium verticillioides [11]
  Activity: 58%
Fusarium verticillioides [12]
  Activity: 0%
Colletotrichum musae [13]
  Activity: inactive
Fusarium verticillioides [14]
  Activity: 50%
Fusarium verticillioides [15]
  Activity: 5%
Colletotrichum musae [16]
  Activity: 0%
Colletotrichum musae [17]
  Activity: 0%
Fusarium verticillioides [18]
  Activity: 42%
Lasiodiplodia theobromae [19]
  Activity: 87%
Colletotrichum musae [20]
  Activity: 50%
Thielaviopsis paradoxa [21]
  Activity: 0%
Colletotrichum musae [22]
  Activity: 62%
Fusarium verticillioides [23]
  Activity: inactive
Lasiodiplodia theobromae [24]
  Activity: 0%
Lasiodiplodia theobromae [25]
  Activity: 0%
Fusarium verticillioides [26]
  inhibition: Active
Fusarium verticillioides [27]
  Activity: 0%
Thielaviopsis paradoxa [28]
  Activity: 0%
Thielaviopsis paradoxa [29]
  Activity: 56%
Fusarium verticillioides [30]
  Activity: 0%
Thielaviopsis paradoxa [31]
  Activity: 0%

## [Cl-].[Na+] [SODIUM CHLORIDE]
Lasiodiplodia theobromae [1]
  Activity: 0%
Colletotrichum musae [2]
  Activity: 0%
Lasiodiplodia theobromae [4]
  Activity: 90%
Colletotrichum musae [5]
  Activity: 0%
Fusarium verticillioides [6]
  Activity: 79%
Thielaviopsis paradoxa [7]
  Activity: 71%
Thielaviopsis paradoxa [8]
  Activity: 10%
Thielaviopsis paradoxa [9]
  Activity: inactive
Lasiodiplodia theobromae [10]
  Activity: 10%
Fusarium verticillioides [11]
  Activity: 0%
Fusarium verticillioides [12]
  Activity: 0%
Colletotrichum musae [13]
  Activity: inactive
Fusarium verticillioides [14]
  Activity: 10%
Fusarium verticillioides [15]
  Activity: 83%
Colletotrichum musae [16]
  Activity: 0%
Colletotrichum musae [17]
  Activity: 83%
Fusarium verticillioides [18]
  Activity: -5%
Lasiodiplodia theobromae [19]
  Activity: 94%
Colletotrichum musae [20]
  Activity: 10%
Thielaviopsis paradoxa [21]
  Activity: 0%
Colletotrichum musae [22]
  Activity: 93%
Fusarium verticillioides [23]
  Activity: inactive
Lasiodiplodia theobromae [24]
  Activity: 0%
Lasiodiplodia theobromae [25]
  Activity: 0%
Fusarium verticillioides [27]
  Activity: 0%
Thielaviopsis paradoxa [28]
  Activity: 0%
Thielaviopsis paradoxa [29]
  Activity: 84%
Fusarium verticillioides [30]
  Activity: 0%
Thielaviopsis paradoxa [31]
  Activity: 0%

## [Na+].[O-]Cl [SODIUM HYPOCHLORITE]
Lasiodiplodia theobromae [1]
  Activity: 50%
Colletotrichum musae [2]
  Activity: 0%
Thielaviopsis paradoxa [3]
  inhibition: Active
Lasiodiplodia theobromae [4]
  Activity: 40%
Colletotrichum musae [5]
  Activity: 50%
Fusarium verticillioides [6]
  Activity: 51%
Thielaviopsis paradoxa [7]
  Activity: 18%
Thielaviopsis paradoxa [8]
  Activity: 50%
Thielaviopsis paradoxa [9]
  Activity: 90 g/L
Lasiodiplodia theobromae [10]
  Activity: 50%
Fusarium verticillioides [11]
  Activity: 47%
Fusarium verticillioides [12]
  Activity: 0%
Colletotrichum musae [13]
  Activity: 30 g/L
Fusarium verticillioides [14]
  Activity: 50%
Fusarium verticillioides [15]
  Activity: 0%
Colletotrichum musae [16]
  Activity: 0%
Colletotrichum musae [17]
  Activity: 13%
Fusarium verticillioides [18]
  Activity: 61%
Lasiodiplodia theobromae [19]
  Activity: 92%
Colletotrichum musae [20]
  Activity: 50%
Thielaviopsis paradoxa [21]
  Activity: 0%
Colletotrichum musae [22]
  Activity: 78%
Fusarium verticillioides [23]
  Activity: 50 g/L
Lasiodiplodia theobromae [24]
  Activity: 0%
Lasiodiplodia theobromae [25]
  Activity: 0%
Fusarium verticillioides [26]
  inhibition: Active
Fusarium verticillioides [27]
  Activity: 50%
Thielaviopsis paradoxa [28]
  Activity: 0%
Thielaviopsis paradoxa [29]
  Activity: 67%
Fusarium verticillioides [30]
  Activity: 0%
Thielaviopsis paradoxa [31]
  Activity: 50%
